These results are taken from US10806785B2, “Immunomodulator compounds and methods of use” (Incyte Corporation, priority 2016, dated 2020).

In the test the target is PD-1/PD-L1 (Homo sapiens (Human), UniProt Q9NZQ7). The test can be described thus: PD-1/PD-L1 binding assay (HTRF). In outline: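 HTRF read-out (665/620 nm) after 60 min at 25 °C with 1 nM Eu anti-human IgG and 20 nM APC anti-His. Beforehand, inhibitors were preincubated 40 min with Fc-PD-1 (25-167, […] as listed) and His-PD-L1 (19-238, 10 nM) in PBS pH 7.4 with Tween-20, BSA, 1% DMSO; IC50 from log-concentration curve.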
In general terms: TR-FRET usually uses a lanthanide donor and a delayed reading to cut background.

Sequence of PD-1/PD-L1 (Q9NZQ7 19-238): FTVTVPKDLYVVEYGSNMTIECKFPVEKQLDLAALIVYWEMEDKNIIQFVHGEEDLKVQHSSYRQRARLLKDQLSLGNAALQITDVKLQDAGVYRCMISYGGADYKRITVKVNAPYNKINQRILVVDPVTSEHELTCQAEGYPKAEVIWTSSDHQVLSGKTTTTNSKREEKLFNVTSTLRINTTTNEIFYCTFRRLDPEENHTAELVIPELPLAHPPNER

Compound `Cc1c(NC(=O)c2nc3c(n2C)CCN(C[C@H](C)O)C3)cccc1-c1cccc(NC(=O)c2nc3c(n2C)CCN(C2CCC2)C3)c1Cl` [Example 44, (S)—N-(2-chloro-3′-(5-(2-hydroxypropyl)-1-methyl-4,5,6,7-tetrahydro-1H-imidazo[4,5-c]pyridine-2-carboxamido)-2′-methylbiphenyl-3-yl)-5-cyclobutyl-1-methyl-4,5,6,7-tetrahydro-1H-imidazo[4,5-c]pyridine-2-carboxamide] displayed an IC50 of at most 10 nM.

As to `Cc1c(NC(=O)c2nc3c(n2C)CCN(C[C@H](C)O)C3)cccc1-c1cccc(NC(=O)c2nc3c(n2C)CCN(CCO)C3)c1Cl` [Example 42, (S)—N-(2′-chloro-3′-(5-(2-hydroxyethyl)-1-methyl-4,5,6,7-tetrahydro-1H-imidazo[4,5-c]pyridine-2-carboxamido)-2-methylbiphenyl-3-yl)-5-(2-hydroxypropyl)-1-methyl-4,5,6,7-tetrahydro-1H-imidazo[4,5-c]pyridine-2-carboxamide], the IC50 was at most 10 nM. The same measure for `CN1CCc2c(nc(C(=O)Nc3cccc(-c4cccc(NC(=O)c5nc6c(n5C)CCN(C5CCC(C(=O)O)CC5)C6)c4Cl)c3Cl)n2C)C1` (stereo not drawn) [Example 79, 4-(2-((2,2′-dichloro-3′-(1,5-dimethyl-4,5,6,7-tetrahydro-1H-imidazo[4,5-c]pyridine-2-carboxamido)-[1,1′-biphenyl]-3-yl)carbamoyl)-1-methyl-1,4,6,7-tetrahydro-5H-imidazo[4,5-c]pyridin-5-yl)cyclohexane-1-carboxylic acid]: at most 10 nM; for `CN1CCc2c(nc(C(=O)Nc3cccc(-c4cccc(NC(=O)c5nc6c(n5C)CCN(C[C@H]5CC[C@H](C(=O)O)CC5)C6)c4Cl)c3Cl)n2C)C1` [Example 60, trans-4-((2-(2,2′-dichloro-3′-(1,5-dimethyl-4,5,6,7-tetrahydro-1H-imidazo[4,5-c]pyridine-2-carboxamido)biphenyl-3-ylcarbamoyl)-1-methyl-6,7-dihydro-1H-imidazo[4,5-c]pyridin-5(4H)-yl)methyl)cyclohexane-1-carboxylic acid]: at most 10 nM. `Cn1c(C(=O)Nc2cccc(-c3cccc(NC(=O)c4nc5c(n4C)CCN(C4CCC4)C5)c3Cl)c2Cl)nc2c1CCN(CC[C@H]1CC[C@H](C(=O)O)CC1)C2` [Example 89, trans-4-(2-(2-((2,2′-dichloro-3′-(5-cyclobutyl-1-methyl-4,5,6,7-tetrahydro-1H-imidazo[4,5-c]pyridine-2-carboxamido)-[1,1′-biphenyl]-3-yl)carbamoyl)-1-methyl-1,4,6,7-tetrahydro-5H-imidazo[4,5-c]pyridin-5-yl)ethyl)cyclohexane-1-carboxylic acid] yielded an IC50 of at most 10 nM. Then `Cc1c(-c2nc3c(o2)CN(C(=O)CN[C@H]2C[C@H](O)C2)C3)cccc1-c1cccc(NC(=O)c2nc3c(n2C)CCN(C)C3)c1Cl` [Compound 166, N-(2-chloro-3′-(5-((trans-3-hydroxycyclobutyl)glycyl)-5,6-dihydro-4H-pyrrolo[3,4-d]oxazol-2-yl)-2′-methyl-[1,1′-biphenyl]-3-yl)-1,5-dimethyl-4,5,6,7-tetrahydro-1H-imidazo[4,5-c]pyridine-2-carboxamide], with at most 10 nM; and `CN1CCc2c(nc(C(=O)Nc3cccc(-c4cccc(NC(=O)c5nc6c(n5C)CCN(CC[C@H]5CC[C@H](C(=O)O)CC5)C6)c4Cl)c3C#N)n2C)C1` [Compound 150, trans-4-(2-(2-(2-chloro-2′-cyano-3′-(1,5-dimethyl-4,5,6,7-tetrahydro-1H-imidazo[4,5-c]pyridine-2-carboxamido)biphenyl-3-ylcarbamoyl)-1-methyl-6,7-dihydro-1H-imidazo[4,5-c]pyridin-5(4H)-yl)ethyl)cyclohexane-1-carboxylic acid], with at most 10 nM; and `Cc1c(NC(=O)c2nc3c(n2C)CCN(C2CCC(C)(C(=O)O)CC2)C3)cccc1-c1cccc(NC(=O)c2nc3c(n2C)CCN(C(C)C)C3)c1Cl` (stereo not drawn) [Example 106, 4-(2-((2′-chloro-3′-(5-isopropyl-1-methyl-4,5,6,7-tetrahydro-1H-imidazo[4,5-c]pyridine-2-carboxamido)-2-methyl-[1,1′-biphenyl]-3-yl)carbamoyl)-1-methyl-1,4,6,7-tetrahydro-5H-imidazo[4,5-c]pyridin-5-yl)-1-methylcyclohexane-1-carboxylic acid], with at most 10 nM. Then `Cc1c(NC(=O)c2nc3c(n2C)CCN(C2CCC(O)CC2)C3)cccc1-c1cccc(NC(=O)c2nc3c(n2C)CCN(C2CCC(C)(C(=O)O)CC2)C3)c1Cl` (stereo not drawn) [Compound 140, 4-(2-((2-chloro-3′-(5-(4-hydroxycyclohexyl)-1-methyl-4,5,6,7-tetrahydro-1H-imidazo[4,5-c]pyridine-2-carboxamido)-2′-methyl-[1,1′-biphenyl]-3-yl)carbamoyl)-1-methyl-1,4,6,7-tetrahydro-5H-imidazo[4,5-c]pyridin-5-yl)-1-methylcyclohexane-1-carboxylic acid], with at most 10 nM. The same measure for `Cc1c(NC(=O)c2nc3c(n2C)CCN(C2CCOCC2)C3)cccc1-c1cccc(NC(=O)c2nc3c(n2C)CCN(C[C@H]2CC[C@@H](C(=O)O)CC2)C3)c1Cl` [Example 136, cis-4-((2-((2-chloro-2′-methyl-3′-(1-methyl-5-(tetrahydro-2H-pyran-4-yl)-4,5,6,7-tetrahydro-1H-imidazo[4,5-c]pyridine-2-carboxamido)-[1,1′-biphenyl]-3-yl)carbamoyl)-1-methyl-1,4,6,7-tetrahydro-5H-imidazo[4,5-c]pyridin-5-yl)methyl)cyclohexane-1-carboxylic Acid]: at most 10 nM; for `Cc1c(NC(=O)c2nc3c(n2C)CCN(C2CCCCC2)C3)cccc1-c1cccc(NC(=O)c2nc3c(n2C)CCN(CC[C@H]2CC[C@H](C(=O)O)CC2)C3)c1Cl` [Example 131, trans-4-(2-(2-((2-chloro-3′-(5-cyclohexyl-1-methyl-4,5,6,7-tetrahydro-1H-imidazo[4,5-c]pyridine-2-carboxamido)-2′-methyl-[1,1′-biphenyl]-3-yl)carbamoyl)-1-methyl-1,4,6,7-tetrahydro-5H-imidazo[4,5-c]pyridin-5-yl)ethyl)cyclohexane-1-carboxylic acid]: at most 10 nM. `Cn1c(C(=O)Nc2cccc(-c3cccc(-c4nc5c(o4)CN(C(=O)CN4CC[C@@H](O)C4)C5)c3Cl)c2Cl)nc2c1CCN(CCC1CCC(C(=O)O)CC1)C2` (stereo partly drawn) [Compound 171, (R)-4-(2-(2-(2,2′-dichloro-3′-(5-(2-(3-hydroxypyrrolidin-1-yl)acetyl)-5,6-dihydro-4H-pyrrolo[3,4-d]oxazol-2-yl)biphenyl-3-ylcarbamoyl)-1-methyl-6,7-dihydro-1H-imidazo[4,5-c]pyridin-5(4H)-yl)ethyl)cyclohexane-1-carboxylic acid] displayed an IC50 of at most 10 nM.

`Cn1c(C(=O)Nc2cccc(-c3cccc(NC(=O)c4nc5c(n4C)CCN(C4CCC(O)CC4)C5)c3Cl)c2Cl)nc2c1CCN(CC[C@H]1CC[C@H](C(=O)O)CC1)C2` (stereo partly drawn) [146 (compound 146-1), trans-4-(2-(2-((2,2′-dichloro-3′-(5-(4-hydroxycyclohexyl)-1-methyl-4,5,6,7-tetrahydro-1H-imidazo[4,5-c]pyridine-2-carboxamido)-[1,1′-biphenyl]-3-yl)carbamoyl)-1-methyl-1,4,6,7-tetrahydro-5H-imidazo[4,5-c]pyridin-5-yl)ethyl)cyclohexane-1-carboxylic acid]: the IC50 is at most 10 nM.

In turn, `C[C@H](O)CN1CCc2c(nc(C(=O)Nc3cccc(-c4cccc(NC(=O)c5nc6c(n5C)CCN(C)C6)c4C#N)c3Cl)n2C)C1` [Example 39, (S)—N-(2-chloro-2′-cyano-3′-(1,5-dimethyl-4,5,6,7-tetrahydro-1H-imidazo[4,5-c]pyridine-2-carboxamido)biphenyl-3-yl)-5-(2-hydroxypropyl)-1-methyl-4,5,6,7-tetrahydro-1H-imidazo[4,5-c]pyridine-2-carboxamide] returned an IC50 of at most 10 nM.

The compound `Cn1c(C(=O)Nc2cccc(-c3cccc(NC(=O)c4nc5c(n4C)CCN(C4CCOCC4)C5)c3Cl)c2Cl)nc2c1CCN(CC[C@H]1CC[C@H](C(=O)O)CC1)C2` [Example 92, trans-4-(2-(2-((2,2′-dichloro-3′-(1-methyl-5-(tetrahydro-2H-pyran-4-yl)-4,5,6,7-tetrahydro-1H-imidazo[4,5-c]pyridine-2-carboxamido)-[1,1′-biphenyl]-3-yl)carbamoyl)-1-methyl-1,4,6,7-tetrahydro-5H-imidazo[4,5-c]pyridin-5-yl)ethyl)cyclohexane-1-carboxylic acid] yielded an IC50 of at most 10 nM. On to `CCN1CCc2c(nc(C(=O)Nc3cccc(-c4cccc(NC(=O)c5nc6c(n5C)CCN(C[C@H]5CC[C@H](C(=O)O)CC5)C6)c4C#N)c3Cl)n2C)C1` [Compound 156, trans-4-((2-((2′-chloro-2-cyano-3′-(5-ethyl-1-methyl-4,5,6,7-tetrahydro-1H-imidazo[4,5-c]pyridine-2-carboxamido)-[1,1′-biphenyl]-3-yl)carbamoyl)-1-methyl-1,4,6,7-tetrahydro-5H-imidazo[4,5-c]pyridin-5-yl)methyl)cyclohexane-1-carboxylic acid], for which the IC50 was at most 10 nM.

Regarding `Cn1c(C(=O)Nc2cccc(-c3cccc(NC(=O)c4nc5c(n4C)CCN(CC46CCC(C(=O)O)(CC4)C6)C5)c3Cl)c2Cl)nc2c1CCN(CCO)C2` [Compound 180, 4-((2-(2,2′-dichloro-3′-(5-(2-hydroxyethyl)-1-methyl-4,5,6,7-tetrahydro-1H-imidazo[4,5-c]pyridine-2-carboxamido)biphenyl-3-ylcarbamoyl)-1-methyl-6,7-dihydro-1H-imidazo[4,5-c]pyridin-5(4H)-yl)methyl)bicyclo[2.2.1]heptane-1-carboxylic acid], the IC50 is at most 10 nM. Then `Cc1c(NC(=O)c2nc3c(n2C)CCN(C[C@H](C)O)C3)cccc1-c1cccc(NC(=O)c2nc3c(n2C)CCN(C2CCC(C)(C(=O)O)CC2)C3)c1Cl` (single isomer, unassigned) [143 (compound 143-1)], with at most 10 nM.

A word on the IC50: it is the point on the concentration scale where inhibition reaches its midpoint. Read a low IC50 as higher potency.
